Values quoted from earlier work as cited in paper PMC4469068 (Endocrine-related cancer, 2012).
*1 amine or outer side, *2 acyl side, *3 side chain or, on linkers, in order; H or OH if unused. Where a SMILES comes first, the peptide text is derived from it. Side-chain parts run from the residue outwards. [ ]: non-standard residue; d: D form. The star is where a group is joined. Ethylenediamine = C(CN[*:2])N[*:1]; Hyp = O=C(O)[C@@H]1C[C@@H](O)CN1; Phg = N[C@H](C(=O)O)c1ccccc1; CO = O=C([*:1])[*:2]; Bn = c1ccc(C*)cc1

Legend:
[1] = tested on: pancreatic neuroendocrine tumors; conditions: ref Yao et al. 2011
[2] = tested on: cell lines derived from small intestine or pancreatic neuroendocrine tumors; conditions: in vitro; ref Kidd, et al. 2008
QTc interval = conditions: 1950 mcg twice daily, healthy adults; ref Novartis, 2012
patients with acromegaly = conditions: pasireotide 200–600 mcg BID; ref Petersenn et al. 2010
[3] = tested on: human corticotroph or somatotroph tumor cell lines; conditions: in vitro; ref Batista, et al. 2006; Danila, et al. 2001
[4] = tested on: patients with octreotide-refractory carcinoid syndrome; conditions: pasireotide 300–1200 mcg bid; ref Kvols et al. 2006
[5] = tested on: advanced carcinoid tumors; conditions: vs. 6 months with placebo; ref Rinke, et al. 2009

## CO[C@H]1C[C@@H]2CC[C@@H](C)[C@@](O)(O2)C(=O)C(=O)N2CCCC[C@H]2C(=O)O[C@H]([C@H](C)C[C@@H]2CC[C@@H](OCCO)[C@H](OC)C2)CC(=O)[C@H](C)/C=C(\C)[C@@H](O)[C@@H](OC)C(=O)[C@H](C)C[C@H](C)/C=C/C=C/C=C/1C [everolimus]
[1]; everolimus alone, randomized trial
  rate of tumor regression: 64%
[1]; single agent, any grade
  hyperglycemia, patients in the everolimus treatment arm: 13%
[1]; single agent
  hyperglycemia categorized as grade 3 or 4: 5%

## NCCCC[C@@H]1NC(=O)[C@@H](Cc2c[nH]c3ccccc23)NC(=O)[C@H](c2ccccc2)NC(=O)[C@@H]2C[C@@H](OC(=O)NCCN)CN2C(=O)[C@H](Cc2ccccc2)NC(=O)[C@H](Cc2ccc(OCc3ccccc3)cc2)NC1=O [pasireotide] (cyclo([Hyp]([CO-Ethylenediamine])[Phg][dW]KY(Bn)F))
[2]
  effect on cell proliferation: inhibition of cell proliferation
sst1; ref Schmid 2008
  binding affinity: high binding affinity
sst1; ref Schmid and Schoeffter 2004
  binding affinity compared with octreotide: greater binding affinity
QTc interval
  effect on QTc: possible QTc prolongation effect
Patients with acromegaly
  hyperglycemia, patients affected: 6.7%
sst5; ref Schmid 2008
  binding affinity: high binding affinity
sst5; ref Schmid and Schoeffter 2004
  binding affinity compared with octreotide: greater binding affinity
sst3; ref Schmid 2008
  binding affinity: high binding affinity
sst3; ref Schmid and Schoeffter 2004
  binding affinity compared with octreotide: greater binding affinity
[3]
  effect on cell proliferation: suppress cell proliferation
[4]
  hyperglycemia, patients affected: 27%
sst2; ref Schmid 2008
  binding affinity: high binding affinity
sst2; ref Schmid and Schoeffter 2004
  binding affinity compared with octreotide: comparable affinity

## octreotide
[5]
  median time to tumor progression: 14.3 months
